For 26 molecules, Ki results are on record in US11203574B2 (BioCryst Pharmaceuticals, Inc., priority 2014, dated 2021).

Structures are written as SMILES. Like-named read-outs stand apart in the source and are kept apart here.

The assay addresses human plasma kallikrein (Homo sapiens (Human), UniProt P03952). Kind of assay: Plasma kallikrein activity assay (chromogenic substrate S2302). Type of assay: biochemical. The following applies: 2 nM kallikrein, 80 μM S2302, 30° C., pH 7.8, Ki by Cheng-Prusoff equation, values given as ranges.

human plasma kallikrein, sequence (P03952 whole entry, looked up): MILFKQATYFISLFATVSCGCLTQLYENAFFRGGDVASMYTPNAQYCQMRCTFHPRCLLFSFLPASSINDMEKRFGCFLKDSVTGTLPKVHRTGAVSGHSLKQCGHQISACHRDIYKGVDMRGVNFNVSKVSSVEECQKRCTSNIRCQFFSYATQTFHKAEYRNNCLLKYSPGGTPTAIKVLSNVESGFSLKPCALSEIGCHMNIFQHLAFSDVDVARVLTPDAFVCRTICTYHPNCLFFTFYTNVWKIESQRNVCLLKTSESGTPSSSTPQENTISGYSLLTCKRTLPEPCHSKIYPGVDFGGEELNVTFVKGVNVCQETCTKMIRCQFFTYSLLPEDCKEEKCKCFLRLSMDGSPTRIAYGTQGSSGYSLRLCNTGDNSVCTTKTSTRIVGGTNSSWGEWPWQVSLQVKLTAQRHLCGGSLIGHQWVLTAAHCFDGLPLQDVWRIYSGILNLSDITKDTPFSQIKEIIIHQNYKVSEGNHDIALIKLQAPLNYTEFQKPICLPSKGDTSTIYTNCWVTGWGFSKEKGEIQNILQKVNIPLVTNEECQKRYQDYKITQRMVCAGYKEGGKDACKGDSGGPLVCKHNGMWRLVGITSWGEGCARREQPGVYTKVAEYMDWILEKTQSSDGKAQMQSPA
human plasma kallikrein, sequence (P03952 whole entry partner, looked up): as the sequence (P03952 whole entry, looked up) above
Experimental: Plasma Kallikrein Activity Assay.
The effect of compounds of the invention on human plasma kallikrein activity was determined using the chromogenic substrates (DiaPharma Group, Inc., West Chester, Ohio, USA). In these experiments, 2 nM kallikrein (Enzyme Research Laboratories, South Bend, Ind., USA) was incubated with 80 μM S2302 (H-D-Pro-Phe-Arg-p-nitroaniline) in the absence or presence of increasing concentrations of compounds of the invention in a final volume of 200 μL Tris-HCl buffer (200 mM NaCl; mM CaCl2; 50 mM Tris-HCl, pH 7.8).
Data were analyzed using SigmaPlot software (Systat Software, Inc., San Jose, Calif., USA) (Four Parameter Logistic Curve).

Regarding `Nc1nccc2ccc(-n3nc(C(=O)Nc4cc(C(N)(CCC5CC5)c5ccncc5)ccc4F)cc3C(F)(F)F)cc12` (single isomer, unassigned; (+)) [268g, (+)-N-(5-(1-amino-3-cyclopropyl-1-(pyridin-4-yl)propyl)-2-fluorophenyl)-1-(1-aminoisoquinolin-7-yl)-5-(trifluoromethyl)-1H-pyrazole-3-carboxamide], for the setting “read-out: Ki”, the Ki fell in the range of 50 to 100 nM. For the molecule `CC(C)(C)C(=O)NC(CCC1CC1)(c1cccnc1)c1ccc(F)c(NC(=O)c2cc(C(F)(F)F)nn2-c2cccc(CN)c2)c1` (single isomer, unassigned; (-)) [244g, (−)-1-(3-(aminomethyl)phenyl)-N-(5-(3-cyclopropyl-1-pivalamido-1-(pyridin-3-yl)propyl)-2-fluorophenyl)-3-(trifluoromethyl)-1H-pyrazole-5-carboxamide], the Ki (read-out: Ki) was in the range of 0.1 to 50 nM. As to `N#Cc1cccc(C(N)(CCC2CC2)c2ccc(F)c(NC(=O)c3cc(C(F)(F)F)nn3-c3cccc(CN)c3)c2)n1` (single isomer, unassigned; (+)) [220f, (+)-N-(5-(1-amino-1-(6-cyanopyridin-2-yl)-3-cyclopropylpropyl)-2-fluorophenyl)-1-(3-(aminomethyl)phenyl)-3-(trifluoromethyl)-1H-pyrazole-5-carboxamide], the Ki (read-out: Ki) lay within 0.1 to 50 nM. Same read-out and setting: in the case of `NCc1cccc(-n2nc(C(F)(F)F)cc2C(=O)Nc2cccc(C(CCC3CC3)n3ccccc3=O)c2)c1` (centres unmarked) [247c, 1-(3-(aminomethyl)phenyl)-N-(3-(3-cyclopropyl-1-(2-oxopyridin-1(2H)-yl)propyl)phenyl)-3-(trifluoromethyl)-1H-pyrazole-5-carboxamide] it was 0.1 to 50 nM; in that of `NCc1cccc(-n2nc(C(F)(F)F)cc2C(=O)Nc2cc(C(N)(CCC3CC3)c3ccc(C(N)=O)cc3)ccc2F)c1` (single isomer, unassigned; (+)) [228a, (+)-N-(5-(1-amino-1-(4-carbamoylphenyl)-3-cyclopropylpropyl)-2-fluorophenyl)-1-(3-(aminomethyl)phenyl)-3-(trifluoromethyl)-1H-pyrazole-5-carboxamide], 0.1 to 50 nM.

Turning to `NCc1cccc(-n2nc(C(F)(F)F)cc2C(=O)Nc2cccc(C(NCC3CC3)c3cc4ccccc4c4ccccc34)c2)c1` (centres unmarked) [125g, 1-(3-(Aminomethyl)phenyl)-N-(3-((cyclopropylmethylamino)(phenanthren-9-yl)methyl)phenyl)-3-(trifluoromethyl)-1H-pyrazole-5-carboxamide], the Ki (Ki) was in the range of 0.1 to 50 nM. `COc1ccc2cc(C(NCC3CC3)c3cccc(NC(=O)c4cc(C(F)(F)F)nn4-c4cccc(CN)c4)c3)ccc2c1` (centres unmarked) [134f, 1-(3-(aminomethyl)phenyl)-N-(3-((cyclopropylmethylamino)(6-methoxynaphthalen-2-yl)methyl)phenyl)-3-(trifluoromethyl)-1H-pyrazole-5-carboxamide]: the Ki (read-out: Ki) lay in the range of 0.1 to 50 nM.

On to `NCc1cccc(-n2nc(C(F)(F)F)cc2C(=O)Nc2cccc(C(OCC3CC3)c3ccccc3)c2)c1` (single isomer, unassigned; (-)) [165e, (−)-1-(3-(aminomethyl)phenyl)-N-(3-((cyclopropylmethoxy)(phenyl)methyl)phenyl)-3-(trifluoromethyl)-1H-pyrazole-5-carboxamide], for which the inhibitory constant (Ki) (read-out: Ki) is 0.1 to 50 nM. Regarding `COc1ccc(C(NCC2CC2)c2cccc(NC(=O)c3cc(C(F)(F)F)nn3-c3cccc(CN)c3)c2)cc1` (centres unmarked) [105g, 1-(3-(Aminomethyl)phenyl)-N-(3-(((cyclopropylmethyl)amino)(4-methoxyphenyl)methyl)phenyl)-3-(trifluoromethyl)-1H-pyrazole-5-carboxamide], the Ki (read-out: Ki) lay within 0.1 to 50 nM. For `N#Cc1ccc(C(N)(CCC2CC2)c2cccc(NC(=O)c3cc(C(F)(F)F)nn3-c3cccc(CN)c3)c2)cc1` (single isomer, unassigned; (+)) [218c, (+)-N-(3-(1-amino-1-(4-cyanophenyl)-3-cyclopropylpropyl)phenyl)-1-(3-(aminomethyl)phenyl)-3-(trifluoromethyl)-1H-pyrazole-5-carboxamide], under “read-out: Ki”, the inhibition constant (Ki) is 0.1 to 50 nM. As to `CCc1cccc(C(NCC2CC2)c2cccc(NC(=O)c3cc(C(F)(F)F)nn3-c3cccc(CN)c3)c2)c1` (centres unmarked) [116e, 1-(3-(aminomethyl)phenyl)-N-(3-((cyclopropylmethylamino)(3-ethylphenyl)methyl)phenyl)-3-(trifluoromethyl)-1H-pyrazole-5-carboxamide], the Ki (read-out: Ki) is 0.1 to 50 nM. With `NCc1cccc(-n2nc(C(F)(F)F)cc2C(=O)Nc2cccc(C(NCC3CC3)c3ccccn3)c2)c1` (centres unmarked) [83c, 1-(3-(aminomethyl)phenyl)-N-(3-((cyclopropylmethylamino)(pyridin-2-yl)methyl)phenyl)-3-(trifluoromethyl)-1H-pyrazole-5-carboxamide], where the note is “read-out: Ki”, the inhibitory constant (Ki) was in the range of 0.1 to 50 nM. Take `CCC(=O)NC(CCC1CC1)(c1cccnc1)c1ccc(F)c(NC(=O)c2cc(C(F)(F)F)nn2-c2cccc(CN)c2)c1` (single isomer, unassigned; (-)) [244i, (−)-1-(3-(aminomethyl)phenyl)-N-(5-(3-cyclopropyl-1-propionamido-1-(pyridin-3-yl)propyl)-2-fluorophenyl)-3-(trifluoromethyl)-1H-pyrazole-5-carboxamide]: for the setting “read-out: Ki”, the Ki fell in the range of 0.1 to 50 nM. As for `NCc1cccc(-n2nc(C(F)(F)F)cc2C(=O)Nc2cccc(C(NCC3CC3)c3ccccc3OCc3ccccc3)c2)c1` (centres unmarked) [106a, 1-(3-(aminomethyl)phenyl)-N-(3-((2-(benzyloxy)phenyl)(cyclopropylmethylamino)methyl)phenyl)-3-(trifluoromethyl)-1H-pyrazole-5-carboxamide], for the setting “read-out: Ki”, the Ki fell in the range of 0.1 to 50 nM. As to `NCc1cccc(-n2nc(C(F)(F)F)cc2C(=O)Nc2cccc(C(NCC3CC3)c3cc(O)ccc3O)c2)c1` (centres unmarked) [146g, 1-(3-(aminomethyl)phenyl)-N-(3-((cyclopropylmethylamino)(2,5-dihydroxyphenyl)methyl)phenyl)-3-(trifluoromethyl)-1H-pyrazole-5-carboxamide], the Ki (read-out: Ki) lay within 0.1 to 50 nM. In the case of `NCc1cccc(-n2nc(C(F)(F)F)cc2C(=O)Nc2cccc(C(O)(CCC3CC3)c3cccnc3)c2)c1` (racemic) [47f, 1-(3-(aminomethyl)phenyl)-N-(3-(3-cyclopropyl-1-hydroxy-1-(pyridin-3-yl)propyl)phenyl)-3-(trifluoromethyl)-1H-pyrazole-5-carboxamide], the Ki (read-out: Ki) was in the range of 0.1 to 50 nM. Take `COc1cccc(C(NCC2CC2)c2ccc(F)c(NC(=O)c3cc(C(F)(F)F)nn3-c3cccc(CN)c3)c2)c1` (centres unmarked) [141e, 1-(3-(aminomethyl)phenyl)-N-(5-(((cyclopropylmethyl)amino)(3-methoxyphenyl)methyl)-2-fluorophenyl)-3-(trifluoromethyl)-1H-pyrazole-5-carboxamide]: the Ki (read-out: Ki) fell in the range of 0.1 to 50 nM. For the molecule `Cc1cccc(C(NCC2CC2)c2ccc(F)c(NC(=O)c3cc(C(F)(F)F)nn3-c3cccc(CN)c3)c2)c1` (centres unmarked) [140e, 1-(3-(aminomethyl)phenyl)-N-(5-(((cyclopropylmethyl)amino)(m-tolyl)methyl)-2-fluorophenyl)-3-(trifluoromethyl)-1H-pyrazole-5-carboxamide], under “read-out: Ki”, the Ki fell in the range of 0.1 to 50 nM. `CC(=O)Nc1ccc(C(NCC2CC2)c2cccc(NC(=O)c3cc(C(F)(F)F)nn3-c3cccc(CN)c3)c2)cc1` (centres unmarked) [138f, N-(3-((4-acetamidophenyl)(cyclopropylmethylamino)methyl)phenyl)-1-(3-(aminomethyl)phenyl)-3-(trifluoromethyl)-1H-pyrazole-5-carboxamide]: where the note is “read-out: Ki”, the Ki was in the range of 0.1 to 50 nM.

In the case of `N#Cc1cccc(C(N)(CCC2CC2)c2cccc(NC(=O)c3cc(C(F)(F)F)nn3-c3cccc(CN)c3)c2)c1` (single isomer, unassigned; (+)) [219c, (+)-N-(3-(1-amino-1-(3-cyanophenyl)-3-cyclopropylpropyl)phenyl)-1-(3-(aminomethyl)phenyl)-3-(trifluoromethyl)-1H-pyrazole-5-carboxamide], the Ki (read-out: Ki) was 0.1 to 50 nM.

Regarding `NCc1cccc(-n2nc(C(F)(F)F)cc2C(=O)Nc2cccc(C(O)(CCC3CC3)c3ccccn3)c2)c1` (centres unmarked) [45g, 1-(3-(aminomethyl)phenyl)-N-(3-(3-cyclopropyl-1-hydroxy-1-(pyridin-2-yl)propyl)phenyl)-3-(trifluoromethyl)-1H-pyrazole-5-carboxamide], the Ki (read-out: Ki) is 0.1 to 50 nM. The same measure, in the same setting: with `NCc1cccc(-n2nc(C(F)(F)F)cc2C(=O)Nc2cc(C(NCC3CC3)c3ccccn3)ccc2F)c1` (centres unmarked) [100e, 1-(3-(aminomethyl)phenyl)-N-(5-((cyclopropylmethylamino)(pyridin-2-yl)methyl)-2-fluorophenyl)-3-(trifluoromethyl)-1H-pyrazole-5-carboxamide] the figure was 0.1 to 50 nM; with `N#Cc1ccc(C(N)(CCC2CC2)c2ccc(F)c(NC(=O)c3cc(C(F)(F)F)nn3-c3cccc(C(=N)N)c3)c2)cc1` (single isomer, unassigned; (+)) [241a, (+)-N-(5-(1-amino-1-(4-cyanophenyl)-3-cyclopropylpropyl)-2-fluorophenyl)-1-(3-carbamimidoylphenyl)-3-(trifluoromethyl)-1H-pyrazole-5-carboxamide], 0.1 to 50 nM. As for `NCc1cccc(-n2nc(C(F)(F)F)cc2C(=O)Nc2cccc(C(OCC3CC3)c3ccc(O)cc3)c2)c1` (centres unmarked) [149b, 1-(3-(aminomethyl)phenyl)-N-(3-((cyclopropylmethoxy)(4-hydroxyphenyl)methyl)phenyl)-3-(trifluoromethyl)-1H-pyrazole-5-carboxamide], under “read-out: Ki”, the Ki lay in the range of 0.1 to 50 nM. For the molecule `NCc1cccc(-n2nc(C(F)(F)F)cc2C(=O)Nc2cccc(C(NCC3CC3)c3ccccc3)c2F)c1` (centres unmarked) [88b, 1-(3-(aminomethyl)phenyl)-N-(3-((cyclopropylmethylamino)(phenyl)methyl)-2-fluorophenyl)-3-(trifluoromethyl)-1H-pyrazole-5-carboxamide], the Ki (read-out: Ki) lay within 0.1 to 50 nM.

Regarding `CC(C)COC(c1ccccc1)c1cccc(NC(=O)c2cc(C(F)(F)F)nn2-c2cccc(CN)c2)c1` (centres unmarked) [18i, 1-(3-(aminomethyl)phenyl)-N-(3-(isobutoxy(phenyl)methyl)phenyl)-3-(trifluoromethyl)-1H-pyrazole-5-carboxamide], where the note is “read-out: Ki”, the Ki was 50 to 100 nM.

In general, Ki refers to a measure of affinity in units of concentration, obtained from inhibition or displacement.
